# Source: ChEMBL document CHEMBL4808226, “Optimization of the Urea Linker of Triazolopyridazine MMV665917 Results in a New Anticryptosporidial Lead with Improved Potency and Predicted hERG Safety Margin” (J Med Chem, 2021)
# pEC50: −log10 of the molar value. Active and inactive are the calls of the source. No cut-off for these calls is given here.
# Legend:
# Cryptosporidium parvum [1] = assay: Anti-cryptosporidial activity against Cryptosporidium parvum infected in HCT-8 cells pre-infected for 3 hrs followed by compound treatment and measured after 45 hrs by fluorescence microscopy analysis; type: functional, organism-based
# [2] = Metabolic stability in human liver microsomes assessed as half life at 2 uM measured up to 30 mins in presence of NADPH by LC-MS/MS analysis; type: ADME, Microsome; settings: for t1/2: microsomes, 0.5 h, 2 µM
# [3] = (§1) Efflux ratio of apparent permeability across basolateral to apical side over apical to basolateral side in […] cells at 10 uM after 2 hrs; type: ADME, cell-based; settings: mdckii-mdr1, 2 h, 10 µM
# [4] = Kinetic aqueous solubility of the compound in pH 7.4; type: physicochemical; settings: buffer, read-out: Kinetic_solubility
# [5] = Metabolic stability in mouse liver microsomes assessed as half life at 2 uM measured up to 30 mins in presence of NADPH by LC-MS/MS analysis; type: ADME, Microsome; settings: 0.5 h
# Cryptosporidium hominis = assay: Anti-cryptosporidial activity against Cryptosporidium hominis infected in HCT-8 cells pre-infected for 3 hrs followed by compound treatment and measured after 45 hrs by fluorescence microscopy analysis; type: functional, organism-based
# Cryptosporidium parvum [6] = assay: Anti-cryptosporidial activity against Cryptosporidium parvum infected in HCT-8 cells assessed as rate of parasite elimination at 6 times of EC90 concentration pre-infected for 24 hrs followed by compound treatment; type: functional, organism-based
# HCT-8 = assay: Cytotoxicity against human HCT8 cells assessed as reduction in cell viability after 48 hrs by CellTiter aqueous assay; type: cell-based; settings: hct-8, 48 h
# hERG (KCNH2) [7] = biological target: T1, hERG (KCNH2) (Homo sapiens, UniProt Q12809); assay: Displacement of [3H]-dofetilide from human ERG at 10 uM relative to control; settings: probe [3H]-dofetilide
# hERG (KCNH2) [8] = biological target: T1, hERG (KCNH2); assay: Inhibition of human ERG expressed in CHO cells at 1 uM by automated patch clamp electrophysiology assay relative to control; type: cell-based; settings: CHO cells that express hERG
# hERG (KCNH2) [9] = biological target: T1, hERG (KCNH2); assay: Inhibition of human ERG expressed in CHO cells at 10 uM by automated patch clamp electrophysiology assay relative to control; type: cell-based; settings: CHO cells that express hERG
# hERG (KCNH2) [10] = biological target: T1, hERG (KCNH2); assay: Inhibition of human ERG expressed in CHO cells at 100 uM by automated patch clamp electrophysiology assay relative to control; type: cell-based; settings: CHO cells that express hERG
# CYP2C9 = CYP2C9 (Homo sapiens, UniProt P11712); assay: Inhibition of CYP2C9 (unknown origin) at 10 uM relative to control; type: ADME
# CYP2C19 = CYP2C19 (Homo sapiens, UniProt P33261); assay: Inhibition of CYP2C19 (unknown origin) at 10 uM relative to control; type: ADME
# Cryptosporidium parvum [11] = assay: Anti-cryptosporidial activity against Cryptosporidium parvum infected in HCT-8 cells assessed as rate of parasite elimination at 6 times of EC90 concentration pre-infected for 24 hrs followed by compound treatment measured after 98 hrs; type: functional
# [12] = Protein binding in mouse plasma at 10 uM after 6 hrs by LC-MS/MS based equilibrium dialysis method; type: ADME, cell-free
# [13] = Protein binding in human plasma at 10 uM after 6 hrs by LC-MS/MS based equilibrium dialysis method; type: ADME, cell-free
# [14] = AUC in CD1 mouse plasma at 1 mg/kg, iv measured upto 6 hrs by LC-MS/MS anlaysis; type: ADME, organism-based; design: route intravenous, dose 1 mg/kg, time <=6; settings: in vivo
# [15] = AUC in CD1 mouse jejunum at 1 mg/kg, iv measured upto 6 hrs by LC-MS/MS anlaysis; type: ADME, organism-based; design: route intravenous, dose 1 mg/kg, time <=6; settings: in vivo
# [16] = AUC in CD1 mouse plasma at 10 mg/kg, po measured upto 24 hrs by LC-MS/MS anlaysis; type: ADME, organism-based; design: route oral, dose 10 mg/kg, time <=24; settings: in vivo
# [17] = AUC in CD1 mouse jejunum at 10 mg/kg, po measured upto 24 hrs by LC-MS/MS anlaysis; type: ADME, organism-based; design: route oral, dose 10 mg/kg, time <=24; settings: in vivo
# [18] = Cmax in CD1 mouse plasma at 1 mg/kg, iv measured upto 6 hrs by LC-MS/MS anlaysis; type: ADME, organism-based; design: route intravenous, dose 1 mg/kg, time <=6; settings: in vivo
# [19] = Cmax in CD1 mouse jejunum at 1 mg/kg, iv measured upto 6 hrs by LC-MS/MS anlaysis; type: ADME, organism-based; design: route intravenous, dose 1 mg/kg, time <=6; settings: in vivo
# [20] = Cmax in CD1 mouse plasma at 10 mg/kg, po measured upto 24 hrs by LC-MS/MS anlaysis; type: ADME, organism-based; design: route oral, dose 10 mg/kg, time <=24; settings: in vivo
# [21] = Cmax in CD1 mouse jejunum at 10 mg/kg, po measured upto 24 hrs by LC-MS/MS anlaysis; type: ADME, organism-based; design: route oral, dose 10 mg/kg, time <=24; settings: in vivo
# [22] = Half life in CD1 mouse plasma at 1 mg/kg, iv measured upto 6 hrs by LC-MS/MS anlaysis; type: ADME, organism-based; settings: in vivo
# [23] = Half life in CD1 mouse jejunum at 1 mg/kg, iv measured upto 6 hrs by LC-MS/MS anlaysis; type: ADME, organism-based; settings: in vivo
# [24] = Volume of distribution in CD1 mouse plasma at 1 mg/kg, iv measured upto 6 hrs by LC-MS/MS anlaysis; type: ADME, organism-based; settings: in vivo
# [25] = Volume of distribution in CD1 mouse jejunum at 1 mg/kg, iv measured upto 6 hrs by LC-MS/MS anlaysis; type: ADME, organism-based; settings: in vivo
# [26] = Oral bioavailability in CD1 mouse jejunum at 10 mg/kg measured upto 24 hrs by LC-MS/MS anlaysis; type: ADME, organism-based; settings: in vivo
# Cryptosporidium parvum [27] = assay: Anti-cryptosporidial activity against Cryptosporidium parvum infected in NSG mouse assessed as reduction in parasite infection at 50 mg/kg, po administered twice daily for 11 days by qPCR analysis; type: functional; design: scale not given: the % may be the effect or the level left; settings: time 11 day
# Cryptosporidium parvum [28] = assay: Anti-cryptosporidial activity against Cryptosporidium parvum infected in NSG mouse assessed as reduction in parasite infection at 50 mg/kg, po administered twice daily for 21 days by qPCR analysis; type: functional, organism-based; settings: time 21.0 day
# [29] = biological target: Voltage-gated inwardly rectifying potassium channel KCNH2 (Homo sapiens, UniProt Q12809); assay: Antagonist activity at human ERG
# hERG (KCNH2) [30] = biological target: T1, hERG (KCNH2); assay: Antagonist activity at human ERG relative to control
# Cryptosporidium parvum [31] = assay: Anti-cryptosporidial activity against Cryptosporidium parvum infected in HCT-8 cells assessed as rate of parasite elimination at above EC90 concentration pre-infected for 24 hrs followed by compound treatment; type: functional, organism-based
# MDR1 (P-gp) = assay: as §1; type: ADME, cell-based; settings: MDCK-MDR1
# T1 sequence (Q12809 whole entry): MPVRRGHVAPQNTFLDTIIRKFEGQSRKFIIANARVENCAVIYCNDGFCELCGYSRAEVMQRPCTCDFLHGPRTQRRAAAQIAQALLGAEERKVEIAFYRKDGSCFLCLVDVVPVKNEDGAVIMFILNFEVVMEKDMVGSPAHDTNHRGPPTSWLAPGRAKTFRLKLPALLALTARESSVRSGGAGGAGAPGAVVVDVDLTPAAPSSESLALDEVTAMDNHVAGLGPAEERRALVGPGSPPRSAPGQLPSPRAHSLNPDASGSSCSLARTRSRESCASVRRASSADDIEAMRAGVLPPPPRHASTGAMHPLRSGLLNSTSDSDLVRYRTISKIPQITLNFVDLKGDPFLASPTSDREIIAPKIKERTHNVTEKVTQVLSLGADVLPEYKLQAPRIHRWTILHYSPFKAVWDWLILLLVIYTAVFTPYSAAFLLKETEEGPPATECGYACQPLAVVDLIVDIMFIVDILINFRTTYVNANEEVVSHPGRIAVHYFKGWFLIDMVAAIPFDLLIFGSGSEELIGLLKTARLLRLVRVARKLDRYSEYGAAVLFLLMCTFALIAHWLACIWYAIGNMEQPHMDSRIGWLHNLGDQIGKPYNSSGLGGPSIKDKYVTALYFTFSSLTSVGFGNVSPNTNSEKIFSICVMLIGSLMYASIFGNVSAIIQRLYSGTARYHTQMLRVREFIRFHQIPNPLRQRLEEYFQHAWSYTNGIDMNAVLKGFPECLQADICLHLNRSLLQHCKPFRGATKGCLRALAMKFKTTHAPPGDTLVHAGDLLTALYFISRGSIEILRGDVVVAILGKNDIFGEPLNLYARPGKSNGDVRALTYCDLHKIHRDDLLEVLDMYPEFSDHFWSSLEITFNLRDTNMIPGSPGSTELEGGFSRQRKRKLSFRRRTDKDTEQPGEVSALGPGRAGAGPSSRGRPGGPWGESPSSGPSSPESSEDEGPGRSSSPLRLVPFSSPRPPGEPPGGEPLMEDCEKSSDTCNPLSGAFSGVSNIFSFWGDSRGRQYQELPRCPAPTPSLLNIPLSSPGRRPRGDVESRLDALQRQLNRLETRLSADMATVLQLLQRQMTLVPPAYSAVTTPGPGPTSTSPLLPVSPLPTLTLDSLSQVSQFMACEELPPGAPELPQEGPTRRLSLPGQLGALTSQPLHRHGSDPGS
# Chain of Voltage-gated inwardly rectifying potassium channel KCNH2 (Q12809 whole entry): as above
# Chain of CYP2C9 (P11712 whole entry): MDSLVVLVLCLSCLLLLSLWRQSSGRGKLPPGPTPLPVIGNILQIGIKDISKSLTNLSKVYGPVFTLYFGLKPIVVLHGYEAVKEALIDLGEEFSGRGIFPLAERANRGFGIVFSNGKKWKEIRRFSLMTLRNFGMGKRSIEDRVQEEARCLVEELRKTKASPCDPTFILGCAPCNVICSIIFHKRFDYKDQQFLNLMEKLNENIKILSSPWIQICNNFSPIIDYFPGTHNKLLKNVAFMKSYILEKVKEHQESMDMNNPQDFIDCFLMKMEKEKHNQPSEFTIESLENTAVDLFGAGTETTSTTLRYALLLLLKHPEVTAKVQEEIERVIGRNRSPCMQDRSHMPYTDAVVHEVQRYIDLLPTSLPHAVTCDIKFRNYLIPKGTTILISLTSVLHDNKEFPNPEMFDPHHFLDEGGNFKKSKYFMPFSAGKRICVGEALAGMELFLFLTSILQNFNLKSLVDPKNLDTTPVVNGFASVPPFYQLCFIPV
# Chain of CYP2C19 (P33261 whole entry): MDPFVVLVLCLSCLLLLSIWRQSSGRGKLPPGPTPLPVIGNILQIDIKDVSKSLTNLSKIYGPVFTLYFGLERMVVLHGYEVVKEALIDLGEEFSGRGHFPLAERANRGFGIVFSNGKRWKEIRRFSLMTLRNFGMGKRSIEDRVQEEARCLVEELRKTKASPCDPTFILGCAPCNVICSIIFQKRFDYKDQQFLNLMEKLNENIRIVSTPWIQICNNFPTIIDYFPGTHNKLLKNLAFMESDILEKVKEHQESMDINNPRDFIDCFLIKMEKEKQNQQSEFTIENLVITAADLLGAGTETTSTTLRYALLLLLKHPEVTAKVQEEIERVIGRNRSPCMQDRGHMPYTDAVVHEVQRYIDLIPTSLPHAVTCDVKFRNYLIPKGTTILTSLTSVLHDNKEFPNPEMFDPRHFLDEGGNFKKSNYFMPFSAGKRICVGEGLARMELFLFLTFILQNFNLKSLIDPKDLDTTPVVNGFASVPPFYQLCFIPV
compound,measurement,setting,value
O=C(Cc1ccc2ccccc2c1)N1CCN(c2ccc3nncn3n2)CC1,pEC50,Cryptosporidium parvum [1],4.85
O=C(Nc1ccc(Cl)c(Cl)c1)N1CCCN(c2ccc3nncn3n2)CC1,pEC50,Cryptosporidium parvum [1],< 4.60
O=C(N1CCN(c2ccc3nncn3n2)CC1)C1(c2ccc(Cl)c(Cl)c2)CC1,pEC50,Cryptosporidium parvum [1],5.07
O=C(Cc1ccc(Cl)c(Cl)c1)N1CCC(c2ccc3nncn3n2)CC1,t1/2,[2],7.8 min
same,pEC50,Cryptosporidium parvum [1],4.96
same,Ratio,[3],9.8
O=C(C(=O)N1CCN(c2ccc3nncn3n2)CC1)c1ccc(Cl)c(Cl)c1,pEC50,Cryptosporidium parvum [1],5.66
O=C(Cc1ccc(Cl)c(Cl)c1)N1CCC(Nc2ccc3nncn3n2)CC1,pEC50,Cryptosporidium parvum [1],< 4.60
O=C(Nc1ccc(Cl)c(Cl)c1)N1CCC(c2ccc3nncn3n2)CC1,t1/2,[2],> 30 min
same,pEC50,Cryptosporidium parvum [1],5.15
same,Ratio,[3],6.6
O=C(Nc1ccc(Cl)c(Cl)c1)N1CCN(c2ccc3nncn3n2)CC1,t1/2,[2],> 30 min
same,solubility kinetic,[4],1.8 µM
same,t1/2,[5],> 30 min
same,pEC50,Cryptosporidium parvum [1],6.26
same,pEC50,Cryptosporidium hominis,6.25
same,Activity,Cryptosporidium parvum [6],Active
same,CC50,HCT-8,> 100 µM
same,inhibition at 10 µM,hERG (KCNH2) [7],56%
same,inhibition at 1 µM,hERG (KCNH2) [8],41%
same,inhibition at 10 µM,hERG (KCNH2) [9],87%
same,inhibition at 100 µM,hERG (KCNH2) [10],94%
same,Ratio,[3],12
O=C(N1CCN(c2ccc3nncn3n2)CC1)C(F)(F)c1ccc(Cl)c(Cl)c1,pEC50,Cryptosporidium parvum [1],5.64
O=C(Cc1ccc(Cl)c(Cl)c1)N1CCN(c2ccc3nncn3n2)CC1,inhibition at 10 µM,CYP2C9,31%
same,inhibition at 10 µM,CYP2C19,44%
same,t1/2,[2],> 30 min
same,solubility kinetic,[4],18 µM
same,t1/2,[5],> 30 min
same,Activity,Cryptosporidium parvum [6],Active
same,Activity,Cryptosporidium parvum [11],99.9%
same,CC50,HCT-8,> 100 µM
same,inhibition at 10 µM,hERG (KCNH2) [7],11%
same,inhibition at 1 µM,hERG (KCNH2) [8],19%
same,inhibition at 10 µM,hERG (KCNH2) [9],67%
same,inhibition at 100 µM,hERG (KCNH2) [10],94%
same,PPB,[12],92.4%
same,PPB,[13],97.8%
same,AUC,[14],50000 ng·h/mL
same,AUC,[15],55000 ng·h/mL
same,AUC,[16],5200 ng·h/mL
same,AUC,[17],240000 ng·h/mL
same,Cmax,[18],17000 ng/mL
same,Cmax,[19],15000 ng/mL
same,Cmax,[20],1500 ng/mL
same,Cmax,[21],36000 ng/mL
same,t1/2,[22],132 min
same,t1/2,[23],324 min
same,Vd,[24],0.062 L/kg
same,Vd,[25],0.13 L/kg
same,F,[26],1%
same,Activity,Cryptosporidium parvum [27],>99%
same,Activity,Cryptosporidium parvum [28],Active
same,pEC50,[29],5.11
same,Emax,hERG (KCNH2) [30],79%
CC(=O)Oc1ccccc1C(=O)Nc1ncc([N+](=O)[O-])s1 [NITAZOXANIDE],pEC50,Cryptosporidium parvum [1],5.70
same,Activity,Cryptosporidium parvum [31],Active
O=S(=O)(Cc1ccc(Cl)c(Cl)c1)N1CCN(c2ccc3nncn3n2)CC1,pEC50,Cryptosporidium parvum [1],< 4.60
O=C(Cc1ccc(Cl)c(Cl)c1)N1CCCN(c2ccc3nncn3n2)CC1,pEC50,Cryptosporidium parvum [1],4.92
O=C(Cc1cccc2ccccc12)N1CCN(c2ccc3nncn3n2)CC1,pEC50,Cryptosporidium parvum [1],4.77
O=C(Cc1ccc(Cl)cc1)N1CCN(c2ccc3nncn3n2)CC1,t1/2,[2],> 30 min
same,solubility kinetic,[4],10 µM
same,t1/2,[5],> 30 min
same,pEC50,Cryptosporidium parvum [1],6.18
same,inhibition at 10 µM,hERG (KCNH2) [7],2%
same,Ratio,[3],3
O=C(Cc1ccc(Cl)c(Cl)c1)NC1CCN(c2ccc3nncn3n2)CC1,pEC50,Cryptosporidium parvum [1],< 4.60
O=C(Cc1ccc(Cl)c(Cl)c1)N1CC=C(c2ccc3nncn3n2)CC1,pEC50,Cryptosporidium parvum [1],4.80
same,inhibition at 10 µM,hERG (KCNH2) [7],9%
O=C(Cc1ccc(F)cc1)N1CCN(c2ccc3nncn3n2)CC1,pEC50,Cryptosporidium parvum [1],6.07
O=C(NC1CCN(c2ccc3nncn3n2)CC1)c1ccc(Cl)c(Cl)c1,pEC50,Cryptosporidium parvum [1],4.92
O=C(Cc1ccc([N+](=O)[O-])cc1)N1CCN(c2ccc3nncn3n2)CC1,pEC50,Cryptosporidium parvum [1],5.60
O=C(Cc1ccccc1)N1CCN(c2ccc3nncn3n2)CC1,pEC50,Cryptosporidium parvum [1],4.66
same,inhibition at 10 µM,hERG (KCNH2) [7],4%
CN(C(=O)N1CCN(c2ccc3nncn3n2)CC1)c1ccc(Cl)c(Cl)c1,pEC50,Cryptosporidium parvum [1],4.54
O=C(Nc1ccc(Cl)cc1)N1CCN(c2ccc3nncn3n2)CC1,t1/2,[2],> 30 min
same,solubility kinetic,[4],200 µM
same,t1/2,[5],> 30 min
same,pEC50,Cryptosporidium parvum [1],5.68
same,pEC50,Cryptosporidium hominis,5.22
same,CC50,HCT-8,> 100 µM
same,inhibition at 10 µM,hERG (KCNH2) [7],8%
same,inhibition at 1 µM,hERG (KCNH2) [8],12%
same,inhibition at 10 µM,hERG (KCNH2) [9],48%
same,inhibition at 100 µM,hERG (KCNH2) [10],88%
same,Ratio,[3],8.9
CC1CN(c2ccc3nncn3n2)CCN1C(=O)Cc1ccc(Cl)c(Cl)c1 (stereo not drawn),pEC50,Cryptosporidium parvum [1],5.15
O=C(c1ccc(Cl)c(Cl)c1)N1CCN(c2ccc3nncn3n2)CC1,pEC50,Cryptosporidium parvum [1],< 4.60
COc1cccc(CC(=O)N2CCN(c3ccc4nncn4n3)CC2)c1,pEC50,Cryptosporidium parvum [1],4.74
COc1ccc(CC(=O)N2CCN(c3ccc4nncn4n3)CC2)cc1,pEC50,Cryptosporidium parvum [1],4.77
O=C(Nc1ccc(Cl)c(Cl)c1)N1CC=C(c2ccc3nncn3n2)CC1,half-life at 2 µM,[2]; liver microsomes,> 30 min
same,solubility kinetic,[4],59 µM
same,pEC50,Cryptosporidium parvum [1],6.21
same,inhibition at 10 µM,hERG (KCNH2) [7],56%
same,"efflux ratio at 2 h, 10 µM",MDR1 (P-gp),6.5
O=C(Cc1cccc(Cl)c1)N1CCN(c2ccc3nncn3n2)CC1,pEC50,Cryptosporidium parvum [1],5.46
N#Cc1ccc(CC(=O)N2CCN(c3ccc4nncn4n3)CC2)cc1,pEC50,Cryptosporidium parvum [1],4.96
CC1CN(c2ccc3nncn3n2)CCN1C(=O)Nc1ccc(Cl)c(Cl)c1 (stereo not drawn),pEC50,Cryptosporidium parvum [1],4.49
